Measurements as given in patent US20030220524A1, “Sulfur containing compounds” (priority 2000, published 2003).
Where two headings read alike, the source gives them in different places.

Legend:
[1] = system: Normal bone marrow (mononucleated, T-cell depleted); experiment: MTT assay; assay type: cell-based; details: 48 h, read-out: MTT50
Protocol: (§1) All cell lines were assayed as asynchronously growing cells. Leukemic cell lines, OCI-AML-2, OCI-AML-3 (referred to hereafter as AML-2 and AML-3, respectively), NB-4, KK, B1, G2, and W1 were cultured in alpha-minimal essential medium (α-MEM) (Princess Margaret Hospital Media Services) supplemented with 10% fetal bovine serum (FBS) (Sigma, St. Louis, Mo.). Non-transformed, diploid fibroblast lines WI38 and IMR90, were cultured in α-MEM and MEM F-15, respectively supplemented with 10% FBS. Media for IMR90 cells was also supplemented with 1.5 g/L bicarbonate and 1 mM pyruvate. Breast tumour cell lines, MDA-231, SK-BR-3, MCF-7, ZR-751, and melanoma tumour cell lines, WM9, WM983, WM793, 1232, were grown in α-MEM supplemented with 10% fetal bovine serum. Prostate tumour cell lines, DU145 and PC-3, were grown in RPMI 1640 media supplemented with 10% FBS. All cell lines were cultured in the presence of penicillin/streptomycin. Mononucleated cells were isolated from normal bone marrow using Ficoll hypaque and then T-cell depleted. T-cell depletion was performed by incubating the mononucleated bone marrow cells in α-MEM at a concentration of 2×10^7 cells/mL with 10% absor FBS and 10% (v/v) sheep red blood cells for 4 to 16 h. Absor FBS was prepared beforehand by heating FBS at 56° C. for 1 h, incubating with sheep red blood cells at 0.5% (v/v) for 1 h and then filtering the FBS with a […]. The T-cell depleted, mononucleated cells were recovered using Ficoll hypaque and were maintained in α-MEM supplemented with 20% FBS and 10% 5637 ? nditioned media. 5637 conditioned media ? s previously harvested from confluent 5637 cells after a 3 day incubation. Normal bone marrow from bone marrow transplant donor was collected following informed consent according to institutional guidelines.
(§2) Approximately 20 mg of each compound was dissolved in 5 mL of ACS grade acetone (Sigma) using a 5 mL volumetric flask. Stock solutions of the compounds were stored in the dark at −20° C. Compounds were diluted prior to each experiment.
(§3) Adherent cells were seeded at 67×10^3 cells/mL in a 96 well plate (Falcon, Mississauga, Ontario) the day prior to exposure to compound. Suspension cells were seeded at 27×10^4 cells/mL in a 96 well plate the day of exposure to compound. Mononucleated, T-cell depleted normal bone marrow cells were seeded at 67×10^4 cells/mL in a 96 well plate the day of exposure to compound. Compounds and solvent control were added to cells and assayed in triplicate or sextuplet. Following 48 h of incubation at 37° C. with 5% CO2, 40 μL of a 5 mg/mL solution of 3-[4,5-dimethylthiazol-2-yl]-2,5-diphenyltetrazolium bromide (MTT) substrate (Sigma) in Dulbecco's phosphate-buffered saline (D-PBS) was added. After 4 h of incubation at 37° C. with 5% CO2, the resulting violet formazan precipitate was solubilized by the addition of 80 μL of a 0.01 M HCI, 10% sodium dodecyl sulfate (SDS; Sigma) solution overnight at 37° C. with 5% CO2. The plates were then analyzed using the BioRad Benchmark Microplate Reader (BioRad Laboratories, Hercules, Calif.) at 570 nm to determine the optical density of the samples. MTT data was analyzed using Prism 3.0 (GraphPad Software, Inc., San Diego, Calif.) by the Chou-Talalay method. MTT graphs shown are a representative experiment.
(§4) Adherent cells were seeded at 67×10^3 cells/mL in a 96 well plate (Falcon, Mississauga, Ontario) the day prior to exposure to compound. Suspension cells were seeded at 27×10^4 cells/mL in a 96 well plate the day of exposure to compound. Mononucleated, T-cell depleted normal bone marrow cells were seeded at 67×10^4 cells/mL in a 96 well plate the day of exposure to compound. Compounds and solvent control were added to cells and assayed in triplicate or sextuplet. […]

[2] = system: WI38 non-transformed diploid fibroblasts; experiment: MTT assay; assay type: cell-based, human; details: for IC50: read-out: MTT50; for Viability of non-transformed human WI38 fibroblasts following exposure: in words
Protocol: as §1, §2, §3, §4

KK leukemic cell line = experiment: MTT assay; assay type: cell-based, human; details: 48 h, read-out: MTT50
Protocol: as §1, §2, §3, §4

AML-3 leukemic cell line [3] = experiment: MTT assay; assay type: cell-based, human
Protocol: as §1, §2, §3, §4

AML-3 leukemic cell line [4] = experiment: Fixed propidium iodide staining, flow cytometry; assay type: cell-based, human; details: 48 h
Protocol: (§5) Adherent cell lines were plated at 35×10^4 cells/60 cm^2 dish the day before exposure to compound. Suspension cells were seeded at 25×10^4 cells/mL in a 6 well dish (Falcon) the day of exposure to compound. Mononucleated, T-cell depleted normal bone marrow cells were seeded at 50×10^4 cells/mL in a 6 well dish the day of exposure to compound. Cells were exposed to solvent control or approximate MTT50 and MTT30 concentrations of the compound. After 48 h of exposure to the compound, cells were harvested, fixed in 80% ethanol for 1 h on ice and labeled with 50 μg/mL propidium iodide (Sigma). Approximately 10^6 cells were analyzed using a XL-MCL flow cytometer (Coulter Corporation, Miami, Fla.) and a FACScalibar cytometer (Becton Dickinson, San Jose, Calif.). Profiles shown are a representative.
as §5, with “cm2” for “cm^2”, “concentrations.” for “concentrations of the compound.”, “representative. Cell viability counts and Pi staining were performed as previously described (Dimitroulakos, J, Nohynek, D, Backway, K L, Hedley, D W, Yeger, H, Freedman, M H, Minden, M D and Penn, L Z: Increased sensitivity of acute myeloid leukemias to lovastatin-induced apoptosis: A potential therapeutic approach. Blood 93: 1308-18, 1999).” for “representative.”

B1 leukemic cell line = experiment: MTT assay; assay type: cell-based, human; details: 48 h, read-out: MTT50
Protocol: as §1, §2, §3, §4

[5] = Homo sapiens, WI-38, 48 h, WI38 (normal), 48 h
[6] = Homo sapiens, AML3, 48 h, AML-3, read-out: MTT50

IC50 (KK leukemic cell line; KK)	IC50 (AML-3 leukemic cell line [3]; AML-3, 48 h, read-out: MTT50)	IC50 (B1 leukemic cell line; Homo sapiens, B1)	IC50 (KK leukemic cell line; Homo sapiens, KK)	IC50 (AML-3 leukemic cell line [3]; [6])	Compound	IC50 ([1]; Normal bone marrow)	IC50 ([2]; WI38 (normal), 48 h)	Viability of non-transformed human WI38 fibroblasts following exposure [2]	IC50 ([1]; T-cell, Normal bone marrow)	IC50 [2, 5]	other results
110 µM	93.4 µM	–	–	–	COC(=O)CSSC [H, methyl 3,4-dithiopentanoate]	366 µM	> 164 µM	not affected	–	–	% pre-G1 (Fixed PI) (AML-3 leukemic cell line [4]; dose 65.7 uM (10 ug/mL)): 3.6%
–	8.53 µM	12.7 µM	10.5 µM	15 µM	CSSc1ccc([N+](=O)[O-])cc1 [M, methyl p-nitrophenyl disulphide]	–	17.4 µM	–	22.6 µM	13.8 µM	% pre-G1 (Fixed PI) (AML-3 leukemic cell line [4]; dose 20 uM): 34%; % pre-G1 (Fixed PI) (AML-3 leukemic cell line [4]; dose 40 uM): 56%
–	–	–	31.5 µM	31.5 µM	CSSCOC(C)=O [I, 2,3-dithiabutyl acetate]	–	–	decreased	32.8 µM	76.9 µM	% pre-G1 (Fixed PI) (AML-3 leukemic cell line [4]; dose 232.8 uM (5 ug/mL)): 23.6%
–	–	–	114 µM	114 µM	CS(=O)(=O)CSCS(C)(=O)=O [G, 2,4,6-trithiaheptane 2,2,6,6-tetraoxide]	–	–	not affected	114 µM	114 µM	% G2/M (Fixed PI) (AML-3 leukemic cell line [4]; dose 45.8 uM (10 ug/mL)): 13.5%; % pre-G1 (Fixed PI) (AML-3 leukemic cell line [4]; dose 45.8 uM (10 ug/mL)): 0.3%

Further lines, the compound ahead of its results:

Compound	IC50 (KK leukemic cell line; KK)	IC50 (AML-3 leukemic cell line [3]; AML-3, 48 h, read-out: MTT50)	IC50 (B1 leukemic cell line; Homo sapiens, B1)	IC50 (KK leukemic cell line; Homo sapiens, KK)	IC50 (AML-3 leukemic cell line [3]; [6])	IC50 ([1]; Normal bone marrow)	IC50 ([2]; WI38 (normal), 48 h)	Viability of non-transformed human WI38 fibroblasts following exposure [2]	IC50 ([1]; T-cell, Normal bone marrow)	IC50 [2, 5]	other results
CSCSCS(C)(=O)=O [B]	> 134 µM	> 134 µM	–	–	–	> 134 µM	> 134 µM	not affected	–	–	% G2/M (Fixed PI) (AML-3 leukemic cell line [4]; dose 107 uM (20 ug/mL)): 13.4%; % pre-G1 (Fixed PI) (AML-3 leukemic cell line [4]; dose 107 uM (20 ug/mL)): 0.3%
CSSCC(=O)c1ccccc1 [Compound P, phenacyl methyl disulphide]	–	–	94.4 µM	65.2 µM	51.1 µM	–	–	–	> 100 µM	> 100 µM	% pre-G1 (Fixed PI) (AML-3 leukemic cell line [4]; dose 50 uM): 7%; % pre-G1 (Fixed PI) (AML-3 leukemic cell line [4]; dose 150 uM): 66%
CS(C)(=O)=O [Compound A, dimethyl sulfone]	> 265 µM	> 265 µM	–	–	–	> 265 µM	> 265 µM	not affected	–	–	% pre-G1 (Fixed PI) (AML-3 leukemic cell line [4]; dose 212 uM (20 ug/mL)): 0.1%
c1ccc(SSc2ccccc2)cc1 [D, diphenyl disulphide]	–	–	–	12.8 µM	10.1 µM	–	–	decreased	19.1 µM	45.3 µM	% pre-G1 (Fixed PI) (AML-3 leukemic cell line [4]; dose 91.6 uM (20 ug/mL)): 24.1%
CSSCS(=O)(=O)c1ccc(C)cc1 [Compound C, α-p-toluenesulfonyl dimethyl disulphide]	31.4 µM	16.9 µM	–	–	–	20.9 µM	89 µM	decreased	–	–	IC50 (B1 leukemic cell line; B1): 13 µM; % G2/M (Fixed PI) (AML-3 leukemic cell line [4]; dose 20.2 uM (10 ug/mL)): 11.1%; % pre-G1 (Fixed PI) (AML-3 leukemic cell line [4]; dose 20.2 uM (10 ug/mL)): 10.7%
CCC(=O)OCSSc1ccccc1 [Compound Q, 1-phenyl-1,2-dithiapropyl propionate]	–	–	14.3 µM	23.7 µM	22.5 µM	–	–	–	> 100 µM	> 100 µM	% G2 increase (Fixed PI) (AML-3 leukemic cell line [4]; dose 20 uM): −5%; % pre-G1 (Fixed PI) (AML-3 leukemic cell line [4]; dose 20 uM): 10%; % G2 increase (Fixed PI) (AML-3 leukemic cell line [4]; dose 40 uM): −9%; % pre-G1 (Fixed PI) (AML-3 leukemic cell line [4]; dose 40 uM): 42%
CSSCCS(C)(=O)=O [F, 2,3,6-trithiaheptane 6,6,-dioxide]	93.4 µM	44 µM	–	–	–	116 µM	> 100 µM	not affected	–	–	% G2/M (Fixed PI) (AML-3 leukemic cell line [4]; dose 45.8 uM (10 ug/mL)): 34.1%; % pre-G1 (Fixed PI) (AML-3 leukemic cell line [4]; dose 45.8 uM (10 ug/mL)): 5.1%
CSCSSC [Compound N, 2,3,5-trithiahexane]	–	–	–	–	–	–	–	–	–	–	IC50 ([1]; T-cell): > 100 µM; IC50 ([2]; Homo sapiens, WI-38, 48 h): > 100 µM; IC50 (B1 leukemic cell line; Homo sapiens): 94.4 µM; IC50 (KK leukemic cell line; Homo sapiens): 65.2 µM; IC50 (AML-3 leukemic cell line [3]; Homo sapiens, AML3, 48 h, read-out: MTT50, AML-3): 51.1 µM; IC50 (AML-3 leukemic cell line [3]; read-out: MTT50, AML-3, 48 h): 73.4 µM; % G2 increase (Fixed PI) (AML-3 leukemic cell line [4]; dose 50 uM): +17%; % pre-G1 (Fixed PI) (AML-3 leukemic cell line [4]; dose 50 uM): 17%; % G2 increase (Fixed PI) (AML-3 leukemic cell line [4]; dose 150 uM): +14%; % pre-G1 (Fixed PI) (AML-3 leukemic cell line [4]; dose 150 uM): 35%
CS(=O)(=O)CSSc1ccccc1 [E, 5-phenyl-2,4,5-trithiapentane 2,2-dioxide]	–	–	4.3 µM	17.5 µM	15.4 µM	–	–	decreased	21.9 µM	45.2 µM	% pre-G1 (Fixed PI) (AML-3 leukemic cell line [4]; dose 85.3 uM (20 ug/mL)): 24.5%
